Common to all, as to type: in vivo
Assay [1] deals with Cabbage Looper (Trichoplusia ni, TRIPNI). Put plainly: Bioassay on Cabbage Looper (CL), 128-well diet tray assay. Particulars: Trichoplusia ni. Put shortly:
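Mortality of second instar larvae exposed to diet coated with 50 μg/cm^2 compound (acetone-water 90:10 vehicle, dried); 25° C., 5–7 days.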

Assay [2] concerns Yellow Fever Mosquito (Aedes aegypti, AEDSAE). The assay can be described thus: Bioassay on Yellow Fever Mosquito (YFM), 96-well plate larval assay. Particulars: for YFM rating: Yellow Fever Mosquito, 96-well plate larval assay; for YFM (Biological Results, rating): Species YFM (Yellow Fever Mosquito). A digest of the protocol: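 Each well was scored for mortality after 3 days at room temperature under a non-evaporative lid. Test molecules came from DMSO masters (4000 ppm stock) diluted with water/acetone 90:10 and dispensed into six replicate plates, which were then infested with roughly 1-day-old larvae in liver-powder water.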

Assay [3] relates to Beet Armyworm (Spodoptera exigua, LAPHEG). The assay can be described thus: Bioassay on Beet Armyworm (BAW), 128-well diet tray assay. Put shortly:
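Second instar larvae were exposed to diet treated at 50 μg/cm^2 for five to seven days at 25° C.; mortality was averaged over eight wells.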

Setting [4] is: Cabbage Looper, 128-well diet tray assay, read-out: CL rating.
The mark [5] stands for this setting: Beet Armyworm, 128-well diet tray assay, read-out: BAW rating.
Where [6] appears, read: Species CL (Cabbage Looper), read-out: CL (Biological Results, rating).
Where [7] appears, read: Species BAW (Beet Armyworm), read-out: BAW (Biological Results, rating).

Read-outs that look alike come from different tables or passages of the source.

Turning to `O=C(Nc1ccc2c(c1)CCN2)c1cc(NC(=O)[C@H]2[C@H](c3cc(Cl)cc(Cl)c3)C2(Cl)Cl)ccc1Cl` (relative stereo) [F511, 2-Chloro-5-(trans)-(2,2-dichloro-3-(3,5-dichlorophenyl)cyclopropane-1-carboxamido)-N-(indolin-5-yl)benzamide], the pest or weed control at 50 µg/cm2 in assay [1] (setting [4]) and in assay [3] (setting [5]) was 50 to 100% in each case. The YFM rating entry in assay [2] is listed as “A (80-100)”.
Take `O=C(Nc1ccc(Cl)c(C(=O)N(CC(F)(F)F)c2ccc(F)cc2)c1)[C@H]1[C@H](c2cc(Cl)cc(Cl)c2)C1(Cl)Cl` (relative stereo) [F100, trans-2-Chloro-5-(2,2-dichloro-3-(3,5-dichlorophenyl)cyclopropane-1-carboxamido)-N-(4-fluorophenyl)-N-(2,2,2-trifluoroethyl)benzamide]: the pest or weed control at 50 µg/cm2 in assay [1] (setting [6]) and in assay [3] (setting [7]) was 50 to 100% each time. Also, in assay [2], the “YFM (Biological Results, rating)” value is given as “A (80-100)”.
Turning to `O=C(Nc1ccc(F)cc1)c1cc(NC(=O)[C@@H]2[C@@H](c3cc(Cl)cc(Cl)c3)C2(Cl)Cl)ccc1Cl` [F166, 2-Chloro-5-((1S,3S)-2,2-dichloro-3-(3,5-dichlorophenyl)cyclopropane-1-carboxamido)-N-(4-fluorophenyl)benzamide], the pest or weed control at 50 µg/cm2 in assay [1] (setting [6]) and in assay [3] (setting [7]) was 50 to 100% throughout. Also, in assay [2], the “YFM (Biological Results, rating)” value is on record as “B (More than 0-Less than 80)”.
Consider `O=C(Nc1ccc(-n2cncn2)cc1)c1cc(NC(=O)[C@H]2[C@H](c3cc(Cl)cc(Cl)c3)C2(Cl)Cl)ccc1Cl` (relative stereo) [PF57, trans-N-(4-(1H-1,2,4-Triazol-1-yl)phenyl)-2-chloro-5-(2,2-dichloro-3-(3,5-dichlorophenyl)cyclopropane-1-carboxamido)benzamide], for which the pest or weed control at 50 µg/cm2 in assay [1] (setting [4]) and in assay [3] (setting [5]) was 50 to 100% each time. Besides, in assay [2], the YFM rating entry was “A (80-100)”.
As for `Cc1cc(N)ccc1NC(=O)c1cc(NC(=O)[C@H]2[C@H](c3ccc(F)c(Cl)c3)C2(Cl)Cl)ccc1Cl` [F291, N-(4-Amino-2-methylphenyl)-2-chloro-5-((1R,3R)-2,2-dichloro-3-(3-chloro-4-fluorophenyl)cyclopropane-1-carboxamido)benzamide], the pest or weed control at 50 µg/cm2 in assay [1] (setting [6]) and in assay [3] (setting [7]) was 50 to 100% each time. Further, the “YFM (Biological Results, rating)” value in assay [2] is on record as “A (80-100)”.
Regarding `O=C(Nc1ccc(F)cc1F)c1cc(NC(=O)C2C(c3cc(Cl)cc(Cl)c3)[C@H]2Cl)ccc1Cl` (stereo partly drawn) [F215, 2-Chloro-5-((2R)-2-chloro-3-(3,5-dichlorophenyl)cyclopropane-1-carboxamido)-N-(2,4-difluorophenyl)benzamide], the pest or weed control at 50 µg/cm2 in assay [1] (setting [6]) and in assay [3] (setting [7]) was 50 to 100% each time. The “YFM (Biological Results, rating)” value in assay [2] is reported as “B (More than 0-Less than 80)”.
In the case of `O=C(Nc1cc(Cl)ccn1)c1cc(NC(=O)[C@H]2[C@H](c3cc(Cl)cc(Cl)c3)C2(Cl)Cl)ccc1Cl` (relative stereo) [PF140, trans-2-Chloro-N-(4-chloropyridin-2-yl)-5-(2,2-dichloro-3-(3,5-dichlorophenyl)cyclopropane-1-carboxamido)benzamide], the pest or weed control at 50 µg/cm2 in assay [1] (setting [4]) and in assay [3] (setting [5]) was 50 to 100% each time. The YFM rating entry in assay [2] is on record as “A (80-100)”.
For `Cc1ccc(NC(=O)c2cc(NC(=O)C3C(c4cc(Cl)cc(Cl)c4)C3(Cl)Cl)ccc2Cl)cc1Cl` (stereo not drawn) [PF125, 2-Chloro-N-(3-chloro-4-methylphenyl)-5-(trans)-2,2-dichloro-3-(3,5-dichlorophenyl)cyclopropane-1-carboxamido)benzamide], the pest or weed control at 50 µg/cm2 in assay [1] (setting [4]) and in assay [3] (setting [5]) was 50 to 100% in each case. Moreover, the YFM rating entry in assay [2] was “A (80-100)”.
As to `CN(C(=O)c1cc(NC(=O)[C@H]2[C@H](c3cccc(C(F)(F)F)c3)C2(Cl)Cl)ccc1Cl)c1ccc(F)cc1` (relative stereo) [F57, trans-2-Chloro-5-(2,2-dichloro-3-(3-(trifluoromethyl)phenyl)cyclopropane-1-carboxamido)-N-(4-fluorophenyl)-N-methylbenzamide], the pest or weed control at 50 µg/cm2 in assay [1] (setting [6]) and in assay [3] (setting [7]) was 50 to 100% throughout. In addition, the “YFM (Biological Results, rating)” value in assay [2] is given as “B (More than 0-Less than 80)”.
Turning to `N#Cc1cc([N+](=O)[O-])ccc1NC(=O)c1cc(NC(=O)[C@H]2[C@H](c3cc(Cl)cc(Cl)c3)C2(Cl)Cl)ccc1Cl` (relative stereo) [F229, trans-2-chloro-N-(2-cyano-4-nitrophenyl)-5-(2,2-dichloro-3-(3,5-dichlorophenyl)cyclopropane-1-carboxamido)benzamide], the pest or weed control at 50 µg/cm2 in assay [1] (setting [6]) and in assay [3] (setting [7]) was 50 to 100% throughout. Further, in assay [2], the “YFM (Biological Results, rating)” value is listed as “A (80-100)”.
For `O=C(Nc1ccc(F)cc1F)c1cc(NC(=O)[C@H]2[C@H](c3ccc(Cl)c(Cl)c3)C2(Cl)Cl)ccc1F` (relative stereo) [F62, trans-5-(2,2-Dichloro-3-(3,4-dichlorophenyl)cyclopropane-1-carboxamido)-N-(2,4-difluorophenyl)-2-fluorobenzamide], the pest or weed control at 50 µg/cm2 in assay [1] (setting [6]) and in assay [3] (setting [7]) was 50 to 100% in each case. Further, the “YFM (Biological Results, rating)” value in assay [2] is given as “B (More than 0-Less than 80)”.
In the case of `Nc1cc(NC(=O)c2cc(NC(=O)[C@H]3[C@H](c4cc(Cl)c(Cl)c(Cl)c4)C3(Cl)Cl)ccc2Cl)c(F)cc1F` [F402, N-(5-Amino-2,4-difluorophenyl)-2-chloro-5-((1R,3R)-2,2-dichloro-3-(3,4,5-trichlorophenyl)cyclopropane-1-carboxamido)benzamide], the pest or weed control at 50 µg/cm2 in assay [1] (setting [4]) and in assay [3] (setting [5]) was 50 to 100% throughout. Further, the YFM rating result in assay [2] is listed as “A (80-100)”.
On to `C=C(F)c1cc([C@H]2[C@H](C(=O)Nc3ccc(Cl)c(C(=O)Nc4ccc(F)cc4)c3)C2(Cl)Cl)ccc1Cl` (relative stereo) [F384, 2-Chloro-5-(trans-2,2-dichloro-3-(4-chloro-3-(1-fluorovinyl)phenyl)cyclopropane-1-carboxamido)-N-(4-fluorophenyl)benzamide], for which the pest or weed control at 50 µg/cm2 in assay [1] (setting [4]) and in assay [3] (setting [5]) was 50 to 100% throughout. Further, the YFM rating result in assay [2] was “A (80-100)”.
As for `O=C(Nc1cccc2[nH]ccc12)c1cc(NC(=O)[C@H]2[C@H](c3cc(Cl)cc(Cl)c3)C2(Cl)Cl)ccc1Cl` (relative stereo) [F528, 2-Chloro-5-(trans)-(2,2-dichloro-3-(3,5-dichlorophenyl)cyclopropane-1-carboxamido)-N-(1H-indol-4-yl)benzamide], the pest or weed control at 50 µg/cm2 in assay [1] (setting [4]) and in assay [3] (setting [5]) was 50 to 100% each time. Moreover, the YFM rating result in assay [2] is on record as “A (80-100)”.
Consider `O=C(Nc1ccc([N+](=O)[O-])cc1F)c1cc(NC(=O)[C@H]2[C@H](c3cc(Cl)cc(Cl)c3)C2(Cl)Cl)ccc1Cl` (relative stereo) [PF74, trans-2-Chloro-5-(2,2-dichloro-3-(3,5-dichlorophenyl)cyclopropane-1-carboxamido)-N-(2-fluoro-4-nitrophenyl)benzamide], for which the pest or weed control at 50 µg/cm2 in assay [1] (setting [4]) and in assay [3] (setting [5]) was 50 to 100% each time. In addition, the YFM rating result in assay [2] was “A (80-100)”.
